In patent publication US20240208972A1, “LRRK2 INHIBITORS AND USES THEREOF” (NEURON23, INC., priority 2022, published 2024):

Tests used:
Caco-2 cells = assay: Caco-2 bidirectional permeability; type: in vitro ADME; settings: for Caco-2 A2B (10^−6 cm/s): A to B; for Caco-2 A2B (10^−6 cm/s) / Caco-2 B2A (10^−6 cm/s): HBSS pH 7.4, 2 hours; for Caco-2 B2A (10^−6 cm/s): B to A; for Caco-2 ER: Efflux Ratio=Papp (BA)/Papp (AB)
Method in brief: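 Caco-2 monolayers grown 21–28 days on PET inserts were run in duplicate in HBSS with 10 mM HEPES, pH 7.4. Compound was tested in both directions at […] for 2 h at 37 °C and quantified by LC-MS/MS. Papp, % recovery and efflux ratio (B-A/A-B) were calculated, with lucifer yellow checking monolayer integrity.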

[1] = Human hepatocyte stability, in vitro h-Hept CLpredict; type: in vitro ADME; settings: cryopreserved hepatocytes, predicted hepatic clearance, cells without asterisk, read-out: hHep Cl
Method in brief: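 Cryopreserved human hepatocytes at 0.5×10^6 viable cells/mL in William's E medium, compound added from 100 μM solution, sampled 0–120 min in duplicate with LC/MS/MS quantitation. t1/2 from parent disappearance converted to CLint, then scaled to predicted hepatic clearance (well-stirred model, fub assumed 1) and extraction ratio.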

| Compound | Caco-2 A2B (10^−6 cm/s) (Caco-2 cells) | Caco-2 B2A (10^−6 cm/s) (Caco-2 cells) | Caco-2 ER (Caco-2 cells) | CLhep predicted at 1 µM [1] |
| --- | --- | --- | --- | --- |
| Cc1n[nH]c2c1N=C(c1c(F)cccc1F)Nc1c-2cc(N2CCN(CC(C)F)CC2)nc1C (racemic) [Example 20, 8-(2,6-difluorophenyl)-13-[4-(2-fluoropropyl)piperazin-1-yl]-5,11-dimethyl-3,4,7,9,12-pentazatricyclo[8.4.0.02,6]tetradeca-1(10),2(6),4,7,11,13-hexaene] | H (H (High permeability)”: A2B (B2A)>5) | H (H (High permeability)”: A2B (B2A)>5) | N (N (Non-substrate)”: ER<2.5) | < 6.3 mL/min/kg |
| Cc1n[nH]c2c1N=C(c1c(F)cccc1F)Nc1c-2cc(N2CCN(CCF)C[C@H]2C)nc1C (single isomer, unassigned) [Example 18] | H (H (High permeability)”: A2B (B2A)>5) | H (H (High permeability)”: A2B (B2A)>5) | N (N (Non-substrate)”: ER<2.5) | 6.3 to 14.7 mL/min/kg |
| Cc1n[nH]c2c1N=C(c1c(F)cccc1F)Nc1cnc(-c3cnn(C(F)F)c3)cc1-2 [Example 1, 9-(1-(difluoromethyl)-1H-pyrazol-4-yl)-5-(2,6-difluorophenyl)-3-methyl-1,6-dihydropyrazolo[4,3-d]pyrido[4,3-f][1,3]diazepine] | H (H (High permeability)”: A2B (B2A)>5) | H (H (High permeability)”: A2B (B2A)>5) | N (N (Non-substrate)”: ER<2.5) | < 6.3 mL/min/kg |
| Cc1n[nH]c2c1N=C(c1c(F)cccc1F)Nc1c-2cc(N2CCN(CC(C)(C)F)CC2)nc1C [Example 5, 5-(2,6-difluorophenyl)-9-(4-(2-fluoro-2-methylpropyl)piperazin-1-yl)-3,7-dimethyl-1,6-dihydropyrazolo[4,3-d]pyrido[4,3-f][1,3]diazepine] | H (H (High permeability)”: A2B (B2A)>5) | H (H (High permeability)”: A2B (B2A)>5) | N (N (Non-substrate)”: ER<2.5) | 6.3 to 14.7 mL/min/kg |
| Cc1n[nH]c2c1N=C(c1c(F)cccc1F)Nc1ccc(N3CCO[C@H](C)C3)cc1-2 [Example 7, (R)-4-(5-(2,6-difluorophenyl)-3-methyl-1,6-dihydrobenzo[d]pyrazolo[3,4-f][1,3]diazepin-9-yl)-2-methylmorpholine] | H (H (High permeability)”: A2B (B2A)>5) | H (H (High permeability)”: A2B (B2A)>5) | N (N (Non-substrate)”: ER<2.5) | 6.3 to 14.7 mL/min/kg |
| Cc1n[nH]c2c1N=C(c1c(F)cccc1F)Nc1c-2cc(N2CCOCC2)nc1C [Example 8, 4-[8-(2,6-difluorophenyl)-5,11-dimethyl-3,4,7,9,12-pentazatricyclo[8.4.0.02,6]tetradeca-1(10),2(6),4,7,11,13-hexaen-13-yl]morpholine] | H (H (High permeability)”: A2B (B2A)>5) | H (H (High permeability)”: A2B (B2A)>5) | N (N (Non-substrate)”: ER<2.5) | 6.3 to 14.7 mL/min/kg |
| Cc1n[nH]c2c1N=C(c1c(F)cccc1F)Nc1c-2cc(N2CCN(CCF)CC2)nc1C [Example 9, 8-(2,6-difluorophenyl)-13-[4-(2-fluoroethyl)piperazin-1-yl]-5,11-dimethyl-3,4,7,9,12-pentazatricyclo[8.4.0.02,6]tetradeca-1(10),2(6),4,7,11,13-hexaene] | H (H (High permeability)”: A2B (B2A)>5) | H (H (High permeability)”: A2B (B2A)>5) | N (N (Non-substrate)”: ER<2.5) | < 6.3 mL/min/kg |
| Fc1cccc(F)c1C1=Nc2c(C(F)F)n[nH]c2-c2cc(N3CCOCC3)ncc2N1 [Example 10, 4-[5-(difluoromethyl)-8-(2,6-difluorophenyl)-3,4,7,9,12-pentazatricyclo[8.4.0.02,6]tetradeca-1(10),2(6),4,7,11,13-hexaen-13-yl]morpholine] | H (H (High permeability)”: A2B (B2A)>5) | H (H (High permeability)”: A2B (B2A)>5) | N (N (Non-substrate)”: ER<2.5) | 6.3 to 14.7 mL/min/kg |
| Cc1n[nH]c2c1N=C(c1c(F)cccc1F)Nc1cnc(-c3ccn(C(F)F)n3)cc1-2 [Example 12, 13-[1-(difluoromethyl)pyrazol-3-yl]-8-(2,6-difluorophenyl)-5-methyl-3,4,7,9,12-pentazatricyclo[8.4.0.02,6]tetradeca-1(10),2(6),4,7,11,13-hexaene] | H (H (High permeability)”: A2B (B2A)>5) | H (H (High permeability)”: A2B (B2A)>5) | N (N (Non-substrate)”: ER<2.5) | < 6.3 mL/min/kg |
| Cc1n[nH]c2c1N=C(c1c(F)cccc1F)Nc1ccc(-c3cnn(C(F)F)c3)cc1-2 [Example 13, 9-[1-(difluoromethyl)pyrazol-4-yl]-5-(2,6-difluorophenyl)-3-methyl-1,6-dihydropyrazolo[4,3-d][1,3]benzodiazepine] | H (H (High permeability)”: A2B (B2A)>5) | H (H (High permeability)”: A2B (B2A)>5) | N (N (Non-substrate)”: ER<2.5) | 6.3 to 14.7 mL/min/kg |
| Cc1n[nH]c2c1N=C(c1c(F)cccc1F)Nc1cnc(C#CC3(C)CCOCC3)cc1-2 [Example 17, 8-(2,6-difluorophenyl)-5-methyl-13-[2-(4-methyltetrahydropyran-4-yl)ethynyl]-3,4,7,9,12-pentazatricyclo[8.4.0.02,6]tetradeca-1(10),2(6),4,7,11,13-hexaene] | M (M (Moderate permeability)”: 1≤A2B (B2A)≤5) | H (H (High permeability)”: A2B (B2A)>5) | L (L (Likely)”: ER>2.5) | > 14.7 mL/min/kg |
| Cc1n[nH]c2c1N=C(c1c(F)cccc1F)Nc1c-2cc(N2CCN(CC(F)F)CC2)nc1C [Example 19, 13-[4-(2,2-difluoroethyl)piperazin-1-yl]-8-(2,6-difluorophenyl)-5,11-dimethyl-3,4,7,9,12-pentazatricyclo[8.4.0.02,6]tetradeca-1(10),2(6),4,7,11,13-hexaene] | H (H (High permeability)”: A2B (B2A)>5) | H (H (High permeability)”: A2B (B2A)>5) | N (N (Non-substrate)”: ER<2.5) | 6.3 to 14.7 mL/min/kg |
| [2H]C1([2H])OC([2H])([2H])C([2H])([2H])N(c2ccc3c(c2)-c2[nH]nc(C)c2N=C(c2c(F)cccc2F)N3)C1([2H])[2H] [Example 22, 2,2,3,3,5,5,6,6-octadeuterio-4-[5-(2,6-difluorophenyl)-3-methyl-1,6-dihydropyrazolo[4,3-d][1,3]benzodiazepin-9-yl]morpholine] | H (H (High permeability)”: A2B (B2A)>5) | H (H (High permeability)”: A2B (B2A)>5) | N (N (Non-substrate)”: ER<2.5) | 6.3 to 14.7 mL/min/kg |
| Cc1n[nH]c2c1N=C(c1c(F)cccc1F)Nc1c-2cc(N2CCN(CC(F)(F)F)CC2)nc1C [Example 23, 5-(2,6-difluorophenyl)-3,7-dimethyl-9-(4-(2,2,2-trifluoroethyl)piperazin-1-yl)-1,6-dihydropyrazolo[4,3-d]pyrido[4,3-f][1,3]diazepine] | H (H (High permeability)”: A2B (B2A)>5) | H (H (High permeability)”: A2B (B2A)>5) | N (N (Non-substrate)”: ER<2.5) | 6.3 to 14.7 mL/min/kg |
| Cc1n[nH]c2c1N=C(c1c(F)cccc1F)Nc1ccc(N3CCN(CCF)CC3)cc1-2 [Example 25, 5-(2,6-difluorophenyl)-9-[4-(2-fluoroethyl)piperazin-1-yl]-3-methyl-1,6-dihydropyrazolo[4,3-d][1,3]benzodiazepine] | H (H (High permeability)”: A2B (B2A)>5) | H (H (High permeability)”: A2B (B2A)>5) | L (L (Likely)”: ER>2.5) | < 6.3 mL/min/kg |
| Cc1n[nH]c2c1N=C(c1c(F)cccc1F)Nc1ccc(N3CCO[C@@H](C)C3)cc1-2 [Example 26, (S)-4-(5-(2,6-difluorophenyl)-3-methyl-1,6-dihydrobenzo[d]pyrazolo[3,4-f][1,3]diazepin-9-yl)-2-methylmorpholine] | H (H (High permeability)”: A2B (B2A)>5) | H (H (High permeability)”: A2B (B2A)>5) | N (N (Non-substrate)”: ER<2.5) | < 6.3 mL/min/kg |
| Cc1n[nH]c2c1N=C(c1c(F)cc(F)cc1F)Nc1ccc(N3CCOCC3)cc1-2 [Example 27, 4-[3-methyl-5-(2,4,6-trifluorophenyl)-1,6-dihydropyrazolo[4,3-d][1,3]benzodiazepin-9-yl]morpholine] | H (H (High permeability)”: A2B (B2A)>5) | H (H (High permeability)”: A2B (B2A)>5) | N (N (Non-substrate)”: ER<2.5) | 6.3 to 14.7 mL/min/kg |
| Cc1n[nH]c2c1N=C(c1c(F)cccc1F)Nc1cc(F)c(N3CCOCC3)cc1-2 [Example 28, 4-[5-(2,6-difluorophenyl)-8-fluoro-3-methyl-1,6-dihydropyrazolo[4,3-d][1,3]benzodiazepine-9-yl]morpholine] | H (H (High permeability)”: A2B (B2A)>5) | H (H (High permeability)”: A2B (B2A)>5) | N (N (Non-substrate)”: ER<2.5) | < 6.3 mL/min/kg |
| Cc1n[nH]c2c1N=C(c1c(F)cccc1F)Nc1ccc(N3CCOCC3)cc1-2 [Example 29, 4-(5-(2,6-difluorophenyl)-3-methyl-1,6-dihydrobenzo[d]pyrazolo[3,4-f][1,3]diazepin-9-yl)morpholine] | H (H (High permeability)”: A2B (B2A)>5) | H (H (High permeability)”: A2B (B2A)>5) | N (N (Non-substrate)”: ER<2.5) | 6.3 to 14.7 mL/min/kg |
